Test results from US20190201586A1, “Three-Dimensional Tissue Matrix Scaffold System” (Washington State University, priority 2016, published 2019).

Legend:
Format in all cases: cell-based
T47D breast cancer cells = assay: CCK-8 proliferation assay and drug screening, T47D cells in 2D culture and on 3D scaffolds; conditions: 1 μM; for cell proliferation after administration of the drug: on day 7, 9, 11, 13, 3D and 2D cultures; for response of the cancer cells to the drug in cell-laden TMS cultures compared to the other 3D culture conditions: TMS vs collagen, IrECM, PLGA scaffolds
Description: (§1) Proliferation assay in 3D culture. The proliferation of the cells grown on the different scaffolds or treated with the different drugs was measured using the CCK-8 reagent at the time points indicated. Briefly, the cell-laden scaffolds (triplicates for each condition) were cultured in 96-well plates. CCK-8 solution was added at a 1:10 dilution into the cultures. The colorimetric absorbance of the supernatants of the cultures that reflects the cell proliferation rate was measured at 490 nm using a Synergy 2 microplate reader (BioTek) after 4 hours of incubation (37° C., 5% CO2). Error bars represent standard deviations (s.d.) of the means of three independent experiments.
(§2) Drug screening. The T47D and BT474 breast cancer cells were used to test the efficacies of the two anticancer drugs, HT and Taxol, in 2D and 3D cultures. 2×10^3 cells/well and 1×10^5 cells/scaffold (in triplicates) were seeded on 2D surface and the 3D scaffolds, respectively, and cultured in 96-well plates for 7 days. The drugs at the final concentration of 1 μM were administered separately to the cultures on day 7, 9, 11, 13 of culture for 24 hours, and cell survival as well as proliferation status assessed on day 1, 8, 10, 12, 14, 21 using the CCK-8 reagent and the Live/Dead assay, respectively. After the measurement on day 14, a seven-day recovering period was included to evaluate the post-treatment proliferation potential of the cells. Three independent experiments were performed for statistical significance.

[1] = system: BT474 breast cancer cells; assay: CCK-8 proliferation assay and drug screening, BT474 cells in 2D culture and on 3D scaffolds; conditions: 1 μM; for cell proliferation after administration of the drug: on day 7, 9, 11, 13, 3D and 2D cultures; for response of the cancer cells to the drug in cell-laden TMS cultures compared to the other 3D culture conditions: TMS vs collagen, IrECM, PLGA scaffolds
Description: as §1, §2

T47D cells = assay: Live/Dead Cell staining of scaffold cultures after drug treatment; conditions: T47D-laden DBT-TMS and PLGA scaffolds; 1 μM
Description: Live/Dead Cell staining. The survival of the cells grown on the 3D scaffolds were assessed using the Live/Dead Cell Staining kit. The cell-carrying scaffolds at different time points or under different treatment conditions were collected and manually sectioned at 250-500 μm of thickness. The sections were washed twice with 1×PBS (37° C.), incubated in the staining solution (2 μM of calcein-AM and 4 μM of EhtD-III in 1×PBS) at RT for 45 minutes, and imaged using fluorescence microscopy. Calcein-AM stains live cells green (under EGFP filter), while EthD-III stains dead cells red (under Texas Red filter).
as §2, with “Three independent experiments were performed for statistical significance.” left out

## CC/C(=C(\c1ccc(O)cc1)c1ccc(OCCN(C)C)cc1)c1ccccc1 [HT, (Z)-4-Hydroxytamoxifen]
T47D breast cancer cells
  cell proliferation after administration of the drug: time-dependently inhibited cell proliferation
  response of the cancer cells to the drug in cell-laden TMS cultures compared to the other 3D culture conditions: lower response
[1]
  cell proliferation after administration of the drug: time-dependently inhibited cell proliferation
  response of the cancer cells to the drug in cell-laden TMS cultures compared to the other 3D culture conditions: lower response
T47D cells
  cell proliferation and clustering over the period of treatment (Live/Dead staining): markedly attenuated

## CC(=O)O[C@H]1C(=O)[C@@]2(C)[C@H]([C@H](OC(=O)c3ccccc3)[C@]3(O)C[C@H](OC(=O)[C@H](O)[C@@H](NC(=O)c4ccccc4)c4ccccc4)C(C)=C1C3(C)C)[C@]1(OC(C)=O)CO[C@@H]1C[C@@H]2O [Taxol, Paclitaxel]
T47D breast cancer cells
  cell proliferation after administration of the drug: time-dependently inhibited cell proliferation
  response of the cancer cells to the drug in cell-laden TMS cultures compared to the other 3D culture conditions: lower response
[1]
  cell proliferation after administration of the drug: time-dependently inhibited cell proliferation
  response of the cancer cells to the drug in cell-laden TMS cultures compared to the other 3D culture conditions: lower response
T47D cells
  cell proliferation and clustering over the period of treatment (Live/Dead staining): markedly attenuated
